A word on the half-life: it is the time needed for the level to fall by half in the phase considered.

Where a SMILES comes first, the peptide text is derived from it. Side-chain parts run from the residue outwards.

The values below come from patent publication US9089539B2 (Indiana University Research and Technology Corporation, priority 2008, dated 2015).

The nature of this data set: Cleavage of dipeptide-extended prodrugs on incubation in PBS (HPLC/MS). In kind it is physicochemical. Here is the method: Preliminary analyses were performed with these crude peptides to get an approximation of their relative conversion rates in Phosphate Buffered Saline (PBS) buffer (pH, 7.2) using high performance liquid chromatography (HPLC) and MALDI analysis. The crude peptide samples were dissolved in the PBS buffer at a concentration of 1 mg/ml. 1 ml of the resulting solution was stored in a 1.5 ml HPLC vial which was then sealed and incubated at 37° C. Aliquots of 100 μl were drawn out at various time intervals, cooled to room temperature and analyzed by HPLC.
HPLC analyses were performed on a 150 mm×4.6 mm C18 Vydac column. The flow rate was 1 ml/min. […] A linear gradient was employed (40% to 70% B in 15 minutes).
Each N-terminally extended peptide was incubated in PBS buffer at 37° C. for approximately a week. Alternatively, each peptide was heated for 120 min at 100° C. to accelerate the amide bond cleavage. Cleavage of the prodrugs was analyzed by reverse phase HPLC and MS.
To explore the possible formation of 2,5-diketopiperazine (DKP) or 2,5-diketomorpholine (DMP) and the simultaneous generation of HO-F^7,GLP(8-36)-CEX, the prodrug was incubated in PBS buffer at 37° C. for approximately a week. The peptide was also heated at 100° C. to determine the susceptibility to cleavage (Table 4).

For `CC[C@H](C)[C@H](NC(=O)[C@H](Cc1ccccc1)NC(=O)[C@H](CCC(=O)O)NC(=O)[C@H](CCCCN)NC(=O)[C@H](C)NC(=O)[C@H](C)NC(=O)[C@H](CCC(N)=O)NC(=O)CNC(=O)[C@H](CCC(=O)O)NC(=O)[C@H](CC(C)C)NC(=O)[C@H](Cc1ccc(O)cc1)NC(=O)[C@H](CO)NC(=O)[C@H](CO)NC(=O)[C@@H](NC(=O)[C@H](CC(=O)O)NC(=O)[C@H](CO)NC(=O)[C@@H](NC(=O)[C@H](Cc1ccccc1)NC(=O)[C@H](COC(=O)CNC(=O)CN)NC(=O)CNC(=O)[C@H](CCC(N)=O)NC(=O)[C@H](C)NC(=O)[C@@H](N)Cc1ccccc1)[C@@H](C)O)C(C)C)C(=O)N[C@@H](C)C(=O)N[C@@H](Cc1c[nH]c2ccccc12)C(=O)N[C@@H](CC(C)C)C(=O)N[C@H](C(=O)N[C@@H](CCCCN)C(=O)NCC(=O)NCC(=O)N1CCC[C@H]1C(=O)N[C@@H](CO)C(=O)N[C@@H](CO)C(=O)NCC(=O)N[C@@H](C)C(=O)N1CCC[C@H]1C(=O)N1CCC[C@H]1C(=O)N1CCC[C@H]1C(=O)N[C@@H](CO)C(N)=O)C(C)C` (H-FAQGS([Gly-Gly])FTSDVSSYLEGQAAKEFIAWLVKGGPSSGAPPPS-NH2; N-terminus and C-terminus assumed), under “buffer, PBS pH 7.2, 37° C.”, the half-life was 2.7 h. Under “in 5 hours, worked out from the half life ([…])”, the “prodrug converted to the active entity” value is reported as “approximately 70%”.
